Laboratory results: publication PMC5909127, “Optimization of a “bump-and-hole” approach to allele-selective BET bromodomain inhibition” (Chemical Science, 2018)

Legend:
in vitro = conditions: PAMPA, pH 7.4
BRD4 BD2 WT = BRD4 BD2 WT (Homo sapiens, UniProt O60885); assay: competitive AlphaLISA; format: binding
[1] = biological target: WT BET bromodomains (BD1 and BD2 of BRD2, BRD3 and BRD4); assay: competitive AlphaLISA (Bio-JQ1 displacement); format: binding, human; conditions: mean and SD of all somatic bromodomains; active enantiomer concentration
BRDT BD2 L/V = BRDT BD2 L/V (Homo sapiens, UniProt Q58F21, L306V); assay: competitive AlphaLISA; format: binding
BRD2 BD2 WT = BRD2 BD2 WT (Homo sapiens, UniProt P25440); assay: competitive AlphaLISA; format: binding
BRDT BD2 WT = BRDT BD2 WT (Homo sapiens, UniProt Q58F21); assay: competitive AlphaLISA; format: binding
BRD4 BD2 L/V = BRD4 BD2 L/V (Homo sapiens, UniProt O60885, L387V); assay: competitive AlphaLISA; format: binding
[2] = biological target: WT somatic BET bromodomains; assay: ITC; conditions: mean and SD of all somatic bromodomains
BRDT BD1 WT = BRDT BD1 WT (Homo sapiens, UniProt Q58F21); assay: competitive AlphaLISA; format: binding
5-HT1B = 5-HT1B (Rattus norvegicus, UniProt P28564); assay: CEREP ExpresSProfile; conditions: read-out: Mean % of control specific binding (±SD)
5-HT7 (h) = 5-HT7 (h) (Homo sapiens, UniProt P34969); assay: CEREP ExpresSProfile; conditions: read-out: Mean % of control specific binding (±SD)
[3] = WT Cell Cytotoxicity (CellTiter-Glo); conditions: human, HL-60 cells (BET-dependent AML cell line)
5-HT6 (h) = 5-HT6 (h) (Homo sapiens, UniProt P50406); assay: CEREP ExpresSProfile; conditions: read-out: Mean % of control specific binding (±SD)
GABA (non-selective) = assay: CEREP ExpresSProfile; format: binding; conditions: 1 µM
beta 1 (h) = beta 1 (h) (Homo sapiens, UniProt P08588); assay: CEREP ExpresSProfile; conditions: read-out: Mean % of control specific binding (±SD)
Cl- channel (GABA-gated) = assay: CEREP ExpresSProfile; format: binding; conditions: 1 µM
[4] = biological target: GFP-labelled WT BRD4 in U2OS cells (Homo sapiens, UniProt O60885); assay: FRAP; conditions: 200 nM, 2 μM SAHA
CCK1 (CCKA) (h) = CCK1 (CCKA) (h) (Homo sapiens, UniProt P32238); assay: CEREP ExpresSProfile; conditions: read-out: Mean % of control specific binding (±SD)
Text: (§5) Receptor Reference Compound Mean % of control specific
Receptor & Ion-Channel Screening
CEREP ExpresSProfile panel

NK3 (h) = NK3 (h) (Homo sapiens, UniProt P29371); assay: CEREP ExpresSProfile; conditions: read-out: Mean % of control specific binding (±SD)
Text: as §5
Receptor & Ion-Channel Screening
CEREP ExpresSProfile panel

H2 (h) = H2 (h) (Homo sapiens, UniProt P25021); assay: CEREP ExpresSProfile; conditions: read-out: Mean % of control specific binding (±SD)
Y1 (h) = Y1 (h) (Homo sapiens, UniProt P25929); assay: CEREP ExpresSProfile; conditions: read-out: Mean % of control specific binding (±SD)
SRPK1 = SRPK1 (Homo sapiens, UniProt Q96SB4); assay: kinase Express Screen; format: biochemical
Protocol: (§1) Kinase Remaining activity
(§2) Table S9. 9-ME-1 Kinase Screen
(§3) Activity of panel of human kinases following treatment with 1 µM (2R, 3S)-7. Dundee MRC-PPU Express Screen
(§4) (http://www.kinase-screen.mrc.ac.uk/services/express-screen)

AMPK (hum) = AMPK (hum) (Homo sapiens, UniProt Q13131); assay: kinase Express Screen; format: biochemical
Protocol: as §1, §2, §3, §4

Aurora B = Aurora B (Homo sapiens, UniProt Q96GD4); assay: kinase Express Screen; format: biochemical
Protocol: as §1, §2, §3, §4

HIPK2 = HIPK2 (Homo sapiens, UniProt Q9H2X6); assay: kinase Express Screen; format: biochemical
Protocol: as §1, §2, §3, §4

PKBa = PKBa (Homo sapiens, UniProt P31749); assay: kinase Express Screen; format: biochemical
Protocol: as §1, §2, §3, §4

PKA = PKA (Homo sapiens, UniProt P17612); assay: kinase Express Screen; format: biochemical
Protocol: as §1, §2, §3, §4

HER4 = HER4 (Homo sapiens, UniProt Q15303); assay: kinase Express Screen; format: biochemical
Protocol: as §1, §2, §3, §4

LKB1 = LKB1 (Homo sapiens, UniProt Q15831); assay: kinase Express Screen; format: biochemical
Protocol: as §1, §2, §3, §4

Lck = Lck (Homo sapiens, UniProt P06239); assay: kinase Express Screen; format: biochemical
Protocol: as §1, §2, §3, §4

RSK1 = RSK1 (Homo sapiens, UniProt Q15418); assay: kinase Express Screen; format: biochemical
Protocol: as §1, §2, §3, §4

TrkA = TrkA (Homo sapiens, UniProt P04629); assay: kinase Express Screen; format: biochemical
Protocol: as §1, §2, §3, §4

PAK4 = PAK4 (Homo sapiens, UniProt O96013); assay: kinase Express Screen; format: biochemical
Protocol: as §1, §2, §3, §4

MKK1 = MKK1 (Homo sapiens, UniProt Q02750); assay: kinase Express Screen; format: biochemical
Protocol: as §1, §2, §3, §4

MLK3 = MLK3 (Homo sapiens, UniProt Q16584); assay: kinase Express Screen; format: biochemical
Protocol: as §1, §2, §3, §4

S6K1 = S6K1 (Homo sapiens, UniProt P23443); assay: kinase Express Screen; format: biochemical
Protocol: as §1, §2, §3, §4

IGF-1R = IGF-1R (Homo sapiens, UniProt P08069); assay: kinase Express Screen; format: biochemical
Protocol: as §1, §2, §3, §4

GAL2 (h) = GAL2 (h) (Homo sapiens, UniProt O43603); assay: CEREP ExpresSProfile; conditions: read-out: Mean % of control specific binding (±SD)
Text: as §5
Receptor & Ion-Channel Screening
CEREP ExpresSProfile panel

A3 (h) = A3 (h) (Homo sapiens, UniProt P0DMS8); assay: CEREP ExpresSProfile; conditions: read-out: Mean % of control specific binding (±SD)
Text: as §5
Receptor & Ion-Channel Screening
CEREP ExpresSProfile panel

VPAC1 (VIP1) (h) = VPAC1 (VIP1) (h) (Homo sapiens, UniProt P32241); assay: CEREP ExpresSProfile; conditions: read-out: Mean % of control specific binding (±SD)
Text: as §5
Receptor & Ion-Channel Screening
CEREP ExpresSProfile panel

[5] = system: Ca2+ channel (L, verapamil site); assay: CEREP ExpresSProfile; format: binding; conditions: 1 µM
CXCR2 (IL-8B) (h) = CXCR2 (IL-8B) (h) (Homo sapiens, UniProt P25025); assay: CEREP ExpresSProfile; conditions: read-out: Mean % of control specific binding (±SD)
Text: as §5
Receptor & Ion-Channel Screening
CEREP ExpresSProfile panel

S6K1, sequence (P23443 whole entry): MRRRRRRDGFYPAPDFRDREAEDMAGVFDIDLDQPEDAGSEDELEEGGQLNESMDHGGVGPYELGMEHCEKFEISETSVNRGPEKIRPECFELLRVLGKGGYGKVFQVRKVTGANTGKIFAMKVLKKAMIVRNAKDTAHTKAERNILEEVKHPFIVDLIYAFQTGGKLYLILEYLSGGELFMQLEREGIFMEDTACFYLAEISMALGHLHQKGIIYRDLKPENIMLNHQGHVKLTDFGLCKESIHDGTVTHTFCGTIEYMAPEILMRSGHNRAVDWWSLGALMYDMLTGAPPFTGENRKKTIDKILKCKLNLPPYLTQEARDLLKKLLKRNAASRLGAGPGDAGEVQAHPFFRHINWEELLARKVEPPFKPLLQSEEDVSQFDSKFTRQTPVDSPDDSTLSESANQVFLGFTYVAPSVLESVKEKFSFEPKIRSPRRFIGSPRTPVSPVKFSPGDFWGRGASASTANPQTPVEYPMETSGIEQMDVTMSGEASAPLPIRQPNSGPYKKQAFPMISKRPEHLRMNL
BRD2 BD2 WT, sequence (P25440 344-455): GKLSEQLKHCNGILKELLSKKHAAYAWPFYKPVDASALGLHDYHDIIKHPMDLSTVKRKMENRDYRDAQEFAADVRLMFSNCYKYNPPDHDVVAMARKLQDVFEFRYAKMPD
MKK1, sequence (Q02750 whole entry): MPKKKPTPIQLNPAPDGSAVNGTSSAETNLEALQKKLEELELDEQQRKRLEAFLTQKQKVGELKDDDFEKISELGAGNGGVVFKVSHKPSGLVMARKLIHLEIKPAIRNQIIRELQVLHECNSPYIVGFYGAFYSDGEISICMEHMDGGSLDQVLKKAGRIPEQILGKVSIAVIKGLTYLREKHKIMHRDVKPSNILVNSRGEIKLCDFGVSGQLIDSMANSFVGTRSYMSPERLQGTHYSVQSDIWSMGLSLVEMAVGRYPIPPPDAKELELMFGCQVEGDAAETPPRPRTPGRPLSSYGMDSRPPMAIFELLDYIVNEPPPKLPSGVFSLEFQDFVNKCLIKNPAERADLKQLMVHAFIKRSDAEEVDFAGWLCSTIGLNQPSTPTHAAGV
A3 (h), sequence (P0DMS8 whole entry): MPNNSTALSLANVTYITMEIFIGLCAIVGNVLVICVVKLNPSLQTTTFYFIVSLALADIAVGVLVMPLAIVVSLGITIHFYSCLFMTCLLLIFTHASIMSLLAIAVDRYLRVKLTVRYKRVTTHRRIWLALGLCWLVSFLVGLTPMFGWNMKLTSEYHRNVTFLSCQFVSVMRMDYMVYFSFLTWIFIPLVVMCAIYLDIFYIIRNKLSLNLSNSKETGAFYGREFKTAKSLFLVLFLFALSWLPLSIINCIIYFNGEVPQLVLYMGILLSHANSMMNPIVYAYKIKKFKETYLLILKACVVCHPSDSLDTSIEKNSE
5-HT6 (h), sequence (P50406 whole entry): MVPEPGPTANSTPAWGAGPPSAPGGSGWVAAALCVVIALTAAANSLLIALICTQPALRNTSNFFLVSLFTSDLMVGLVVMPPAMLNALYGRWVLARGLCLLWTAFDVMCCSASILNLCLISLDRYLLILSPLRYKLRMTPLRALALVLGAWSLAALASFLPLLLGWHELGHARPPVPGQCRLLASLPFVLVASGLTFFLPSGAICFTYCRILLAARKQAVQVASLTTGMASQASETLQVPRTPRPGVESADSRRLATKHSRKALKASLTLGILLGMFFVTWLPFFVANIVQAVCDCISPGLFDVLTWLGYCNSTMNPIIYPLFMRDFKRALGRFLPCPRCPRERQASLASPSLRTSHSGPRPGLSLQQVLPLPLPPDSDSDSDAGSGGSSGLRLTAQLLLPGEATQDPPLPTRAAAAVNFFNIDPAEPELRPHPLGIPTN
5-HT1B, sequence (P28564 whole entry): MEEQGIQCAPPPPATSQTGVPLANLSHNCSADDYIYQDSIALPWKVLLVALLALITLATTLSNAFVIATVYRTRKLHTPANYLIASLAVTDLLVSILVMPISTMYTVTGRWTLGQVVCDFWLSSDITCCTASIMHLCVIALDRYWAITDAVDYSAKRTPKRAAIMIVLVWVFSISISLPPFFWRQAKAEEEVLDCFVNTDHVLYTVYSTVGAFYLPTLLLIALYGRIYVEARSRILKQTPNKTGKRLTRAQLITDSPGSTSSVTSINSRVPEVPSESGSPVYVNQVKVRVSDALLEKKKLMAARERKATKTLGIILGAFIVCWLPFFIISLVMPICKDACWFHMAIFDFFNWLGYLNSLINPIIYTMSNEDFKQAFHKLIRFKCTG
Y1 (h), sequence (P25929 whole entry): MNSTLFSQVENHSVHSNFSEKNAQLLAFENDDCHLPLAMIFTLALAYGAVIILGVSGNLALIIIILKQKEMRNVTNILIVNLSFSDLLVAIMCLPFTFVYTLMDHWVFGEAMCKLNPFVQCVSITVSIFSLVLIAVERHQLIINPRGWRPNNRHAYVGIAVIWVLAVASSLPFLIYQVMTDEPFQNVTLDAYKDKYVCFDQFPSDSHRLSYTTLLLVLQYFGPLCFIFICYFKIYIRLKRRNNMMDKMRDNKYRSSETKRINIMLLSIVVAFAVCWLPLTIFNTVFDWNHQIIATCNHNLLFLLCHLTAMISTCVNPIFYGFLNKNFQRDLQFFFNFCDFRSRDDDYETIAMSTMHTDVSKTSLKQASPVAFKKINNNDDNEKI
PAK4, sequence (O96013 whole entry): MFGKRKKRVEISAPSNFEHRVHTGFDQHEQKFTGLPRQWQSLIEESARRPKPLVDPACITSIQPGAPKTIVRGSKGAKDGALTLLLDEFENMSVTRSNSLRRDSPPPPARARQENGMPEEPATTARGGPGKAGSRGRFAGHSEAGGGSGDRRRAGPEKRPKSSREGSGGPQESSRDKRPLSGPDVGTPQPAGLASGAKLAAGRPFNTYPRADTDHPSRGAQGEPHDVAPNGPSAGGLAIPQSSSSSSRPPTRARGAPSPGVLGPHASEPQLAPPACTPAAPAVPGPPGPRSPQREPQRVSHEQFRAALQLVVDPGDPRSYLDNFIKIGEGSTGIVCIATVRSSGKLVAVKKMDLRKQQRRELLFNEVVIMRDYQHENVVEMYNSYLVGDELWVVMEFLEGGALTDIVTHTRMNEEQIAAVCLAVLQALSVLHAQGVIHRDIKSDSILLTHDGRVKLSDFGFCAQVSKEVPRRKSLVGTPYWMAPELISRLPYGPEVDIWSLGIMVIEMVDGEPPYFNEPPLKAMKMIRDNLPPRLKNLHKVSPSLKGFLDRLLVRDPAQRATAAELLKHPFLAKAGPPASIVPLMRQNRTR
AMPK (hum), sequence (Q13131 whole entry): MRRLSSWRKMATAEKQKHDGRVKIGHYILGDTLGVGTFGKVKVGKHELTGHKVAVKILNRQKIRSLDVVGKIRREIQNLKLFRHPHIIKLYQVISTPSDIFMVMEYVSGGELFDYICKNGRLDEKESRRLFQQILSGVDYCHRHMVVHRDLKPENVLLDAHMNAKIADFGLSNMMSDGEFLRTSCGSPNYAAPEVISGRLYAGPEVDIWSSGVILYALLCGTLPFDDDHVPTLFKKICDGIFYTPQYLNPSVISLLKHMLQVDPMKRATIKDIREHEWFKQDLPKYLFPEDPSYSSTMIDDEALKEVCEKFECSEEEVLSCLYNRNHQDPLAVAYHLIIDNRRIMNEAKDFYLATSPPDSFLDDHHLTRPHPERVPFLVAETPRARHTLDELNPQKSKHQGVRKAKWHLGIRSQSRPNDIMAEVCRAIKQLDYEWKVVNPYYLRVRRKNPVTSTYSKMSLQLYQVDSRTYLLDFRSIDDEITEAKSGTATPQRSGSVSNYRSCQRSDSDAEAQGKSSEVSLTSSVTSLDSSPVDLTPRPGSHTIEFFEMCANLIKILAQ
AMPK (hum), sequence (O43741 whole entry partner): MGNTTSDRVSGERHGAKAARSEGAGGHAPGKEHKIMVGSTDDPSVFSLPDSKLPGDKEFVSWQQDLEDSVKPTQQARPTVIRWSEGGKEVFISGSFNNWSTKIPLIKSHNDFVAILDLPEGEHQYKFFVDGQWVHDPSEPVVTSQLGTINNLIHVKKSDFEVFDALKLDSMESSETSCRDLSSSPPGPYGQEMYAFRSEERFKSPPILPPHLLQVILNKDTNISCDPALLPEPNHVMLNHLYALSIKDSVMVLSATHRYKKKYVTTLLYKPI
AMPK (hum), sequence (P54619 whole entry partner): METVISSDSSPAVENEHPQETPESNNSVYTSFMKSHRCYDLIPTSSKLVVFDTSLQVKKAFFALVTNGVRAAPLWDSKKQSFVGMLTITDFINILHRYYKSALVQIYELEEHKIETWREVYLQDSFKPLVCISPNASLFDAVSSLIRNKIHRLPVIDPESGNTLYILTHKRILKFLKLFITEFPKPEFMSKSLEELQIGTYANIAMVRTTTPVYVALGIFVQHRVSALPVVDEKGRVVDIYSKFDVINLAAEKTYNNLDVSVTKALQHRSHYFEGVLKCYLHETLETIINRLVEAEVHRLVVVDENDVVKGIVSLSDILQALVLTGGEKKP
GAL2 (h), sequence (O43603 whole entry): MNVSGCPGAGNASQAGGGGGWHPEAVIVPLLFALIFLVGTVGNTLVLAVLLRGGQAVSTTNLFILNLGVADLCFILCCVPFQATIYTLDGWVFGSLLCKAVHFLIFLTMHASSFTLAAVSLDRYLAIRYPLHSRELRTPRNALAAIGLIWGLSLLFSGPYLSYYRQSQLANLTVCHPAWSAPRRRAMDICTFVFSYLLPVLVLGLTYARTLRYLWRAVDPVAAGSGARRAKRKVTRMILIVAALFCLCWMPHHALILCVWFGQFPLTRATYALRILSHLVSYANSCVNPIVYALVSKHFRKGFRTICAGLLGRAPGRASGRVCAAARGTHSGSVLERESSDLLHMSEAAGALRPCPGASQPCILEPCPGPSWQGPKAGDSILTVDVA

CC[C@@H](C(=O)OC)[C@@H]1N=C(c2ccc(Cl)cc2)c2ccc(OC)cc2-n2c(C)nnc21 (racemic) [Compound 8]
Papp (in vitro): 15.5 ×10⁻⁶ cm/s
IC50 (BRD4 BD2 WT): 3.16 µM
AlphaLISA pIC50 ± SD WT [1]: 5.5 ± 0.2
IC50 (BRDT BD2 L/V): 0.398 µM
IC50 (BRD2 BD2 WT): 3.98 µM
IC50 (BRDT BD2 WT): 3.98 µM
IC50 (BRD4 BD2 L/V): 0.2 µM
ITC pKd ± SD WT [2]: <4.2
IC50 (BRDT BD1 WT): 15.8 µM

COC(=O)[C@H](C)[C@@H]1N=C(c2ccc(Cl)cc2)c2ccc(OC)cc2-n2c(C)nnc21 [(2R,3S)-7]
remaining activity at 1 µM (5-HT1B): 98%
remaining activity at 1 µM (5-HT7 (h)): 106%
CC50 at 48 h [3]: > 5.01 µM
remaining activity at 1 µM (5-HT6 (h)): 112%
Mean % of control specific binding (±SD) (GABA (non-selective)): 110 (1) %
remaining activity at 1 µM (beta 1 (h)): 95%
Mean % of control specific binding (±SD) (Cl- channel (GABA-gated)): 98 (4) %
blockade of WT BRD4 (FRAP) [4]: no statistically significant blockade
remaining activity at 1 µM (CCK1 (CCKA) (h)): 90%
remaining activity at 1 µM (NK3 (h)): 99%
remaining activity at 1 µM (H2 (h)): 117%
remaining activity at 1 µM (Y1 (h)): 122%
remaining activity at 1 µM (SRPK1): 79%
remaining activity at 1 µM (AMPK (hum)): 104%
remaining activity at 1 µM (Aurora B): 94%
remaining activity at 1 µM (HIPK2): 99%
remaining activity at 1 µM (PKBa): 95%
remaining activity at 1 µM (PKA): 92%
remaining activity at 1 µM (HER4): 114%
remaining activity at 1 µM (LKB1): 91%
remaining activity at 1 µM (Lck): 86%
remaining activity at 1 µM (RSK1): 99%
remaining activity at 1 µM (TrkA): 98%
remaining activity at 1 µM (PAK4): 104%
remaining activity at 1 µM (MKK1): 89%
remaining activity at 1 µM (MLK3): 100%
remaining activity at 1 µM (S6K1): 93%
remaining activity at 1 µM (IGF-1R): 93%
remaining activity at 1 µM (GAL2 (h)): 96%
remaining activity at 1 µM (A3 (h)): 91%
remaining activity at 1 µM (VPAC1 (VIP1) (h)): 98%
Mean % of control specific binding (±SD) [5]: 108 (6) %
remaining activity at 1 µM (CXCR2 (IL-8B) (h)): 96%
